Laboratory results as given in PubChem BioAssay AID463199 (Broad Institute, 2010).
Calls of active or inactive are those of the source.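 Rule for the calls: active = AC50, the dose giving half-maximal effect, exceeds a fixed cutoff for a compound that rescues yeast growth under heat; inactive = the rest, inconclusive results apart.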

Tested on: S. cerevisiae Burl-1 ts mutant growth, BacTiter-Glo, 38.5C 24 h
Test: restored growth of temperature-sensitive Burl-1 yeast – whole organism, S. cerevisiae, Burl-1 ts mutant, luminescence, counter-screen for SUMOylation pathway inhibitor project, dose response (AID 463199)

Row | Compound | AC50
1 | CCOC(=O)c1oc2ccccc2c1COC(=O)CNC(=O)c1cccc(C)c1 | > 42 µM (inactive)
2 | O=c1c2ccccc2ncn1-c1ccc(Cl)cc1Cl | > 42 µM (inactive)
3 | Cc1cccc(NC(=O)CSCC(=O)N2CCCc3ccccc32)c1 | > 42 µM (inactive)
4 | CCN1C(=O)c2cccc3c(S(=O)(=O)Nc4ccc(OC)cc4OC)ccc1c23 | > 42 µM (inactive)
5 | Cc1nn(C(C)(C)C)c(OC(=O)c2ccc3c(c2)OCO3)c1S(=O)(=O)c1ccccc1 | > 42 µM (inactive)
6 | CCOC(=O)c1cnc2oc3ccccc3n2c1=O | > 42 µM (inactive)
7 | COc1cccc(CN(C)CC2CCCN(CCc3ccc(Cl)cc3)C2)c1OC (centres undefined) | > 42 µM (inactive)
8 | CC(NC(=O)CCc1nnc(-c2ccc(-c3ccccc3)cc2)o1)c1nc2ccccc2[nH]1 (centres undefined) | > 42 µM (inactive)
9 | Cc1cccc(OCc2nnc(SCC(=O)O)n2-c2ccccc2)c1 | > 42 µM (inactive)
10 | O=C(CCS(=O)(=O)c1ccc(Br)s1)NCc1ccccc1 | > 42 µM (inactive)
11 | COc1ccc(NC(=O)c2ccccc2NC(=O)NC2CCCCC2)cc1 | > 42 µM (inactive)
12 | COc1cccc(NC(=S)NC(=O)c2cncc(Br)c2)c1 | > 42 µM (inactive)
13 | CSc1ccccc1-c1nc(-c2ccncc2)no1 | > 42 µM (inactive)
14 | COc1ccc(CN(C)S(=O)(=O)c2nnc(NC(=O)c3ccc(C)cc3)s2)cc1OC | > 42 µM (inactive)
15 | CCCCC(=O)Nc1cc(OC)c(NC(=O)C2CCCCC2)cc1OC | > 42 µM (inactive)
16 | CC(=O)CSc1ncnc2sc3c(c12)CCCC3 | > 42 µM (inactive)
17 | Cc1ccccc1-c1nc(CN2CCCC(C(=O)NCc3cccnc3)C2)c(C)o1 (centres undefined) | > 42 µM (inactive)
18 | COc1ccccc1NC(NC(=O)c1ccco1)C(=O)c1ccccc1 (centres undefined) | > 42 µM (inactive)
19 | COCCn1c(SCC(=O)Nc2nc3ccccc3s2)nnc1-c1ccoc1C | > 42 µM (inactive)
20 | O=C(N/N=C/c1ccc(Cl)s1)c1ccccc1[N+](=O)[O-] | > 42 µM (inactive)
21 | COc1ccc(/C=N/NC(=O)c2c(C)nc3ccccn23)cc1[N+](=O)[O-] | > 42 µM (inactive)
22 | COc1ccc(S(=O)(=O)n2nc(-c3ccc(Cl)cc3)cc2N)cc1OC | > 42 µM (inactive)
23 | O=C(NC1CCCCC1)c1n[nH]c2c1CCCCC2 | > 42 µM (inactive)
24 | O=C1CN(C(=O)COC(=O)c2ccccc2NCc2ccco2)c2ccccc2N1 | > 42 µM (inactive)
25 | O=C(c1ccco1)N1CCN(CC(=O)N2c3ccccc3CCc3ccccc32)CC1 | > 42 µM (inactive)

Row | Compound | AC50
26 | CCOC(=O)N1CCN(S(=O)(=O)c2ccc(C)c(C)c2)CC1 | > 42 µM (inactive)
27 | N#C/C(=C\Nc1ccc2c(c1)OCCO2)c1nc2ccccc2[nH]1 | > 42 µM (inactive)
28 | CC(C)(c1ccccc1)c1ccc(OCCN2CCOCC2)cc1 | > 42 µM (inactive)
29 | NC(=O)c1ccccc1NC(=O)c1ccc2c(c1)OCO2 | > 42 µM (inactive)
30 | CCN(CC)CCCNC(=O)C1c2ccccc2C(=O)N(CCOC)C1c1ccc(F)cc1 (centres undefined) | > 21 µM (inactive)
31 | C[C@H]1CN=C(Nc2ccccc2)N1CCC1CCCC1 | > 42 µM (inactive)
32 | CCOc1ccc(-c2nnc(SCC(=O)N3CCCC3)o2)cc1 | > 42 µM (inactive)
33 | O=S(=O)(CCN1CCCCC1)Oc1ccc(Cl)cc1Cl | > 42 µM (inactive)
34 | S=C(c1ccc(N2CCOCC2)cc1)N1CCCCC1 | > 42 µM (inactive)
35 | Cc1ccc(/C=N/NC(=O)NC23CC4CC(CC(C4)C2)C3)o1 | > 42 µM (inactive)
36 | CCCCOCCCNS(=O)(=O)Cc1ccccc1 | > 42 µM (inactive)
37 | COc1ccc(CN2C(=O)C(=O)N(CC(N)=O)C2=O)cc1 | > 42 µM (inactive)
38 | C[C@]12CC[C@H]3C(=CCc4cc(O)ccc43)[C@@H]1CCC2=O | > 42 µM (inactive)
39 | Cn1c(=O)nc2n(Cc3ccccc3)c3ccccc3cc-2c1=O | > 42 µM (inactive)
40 | CC1(OC(=O)CCc2ccccc2)C(=O)C=C2C=C(c3ccc(C#N)cc3)N(C3CCCC3)C=C2C1=O (centres undefined) | > 42 µM (inactive)
41 | COc1ccc2nc(SCC(=O)N(C)CC(=O)Nc3ccc(F)cc3)[nH]c2c1 | > 42 µM (inactive)
42 | COc1ccc2cc(C#N)c(Nc3cccc(F)c3)nc2c1 | > 42 µM (inactive)
43 | O=C(c1ccc(F)cc1)C(CN1CCOCC1)c1ccccc1 (centres undefined) | > 42 µM (inactive)
44 | CC(Oc1ccccc1[N+](=O)[O-])C(=O)N/N=C/c1ccoc1 (centres undefined) | > 42 µM (inactive)
45 | COc1cccc(-n2nnc3c(=O)n(CC(=O)N4CCCc5ccccc54)cnc32)c1 | > 42 µM (inactive)
46 | CC1CCN(CCNC(=O)C2CCCN(S(=O)(=O)c3cccc4nsnc34)C2)CC1 (centres undefined) | > 42 µM (inactive)
47 | O=S(=O)(Nc1ccc(-c2nc3cccnc3s2)cc1)c1cc(F)ccc1F | > 42 µM (inactive)
48 | CCc1ccc2[nH]c(=O)c(C(c3nnnn3Cc3ccccc3)N3CCOCC3)cc2c1 (centres undefined) | > 42 µM (inactive)
49 | N#Cc1ccc(/C=C/C(=O)c2ccco2)cc1 | > 42 µM (inactive)
50 | CCN(CC)c1ccc(Nc2cc3n(c(=O)n2)CCc2cc(OC)c(OC)cc2-3)cc1 | > 42 µM (inactive)

Row | Compound | AC50
51 | COc1ccc2c(C(=O)CN3CC(C)OC(C)C3)c[nH]c2c1 (centres undefined) | > 42 µM (inactive)
52 | CCC(C)[C@H](N)c1nnc(SCC(=O)Nc2cccc(Cl)c2)o1 (some centres undefined) | > 42 µM (inactive)
53 | N#Cc1cc2c(nc1SC1CCCCC1O)CCCC2 (centres undefined) | > 42 µM (inactive)
54 | C/C(=N\NC(=O)Cc1csc(N2CCOCC2)n1)c1ccccc1 | > 42 µM (inactive)
55 | CCN1CCCC1CN(Cc1cc2ccc(C)cc2[nH]c1=O)C(=S)Nc1ccc(OC)cc1OC (centres undefined) | > 42 µM (inactive)
56 | C=CCOC(=O)C(C#N)c1nc2ccccc2nc1N1CCN(Cc2ccccc2)CC1 (centres undefined) | > 42 µM (inactive)
57 | COc1ccc(NC(=O)CN(C)C(=O)/C=C/c2cn(-c3ccccc3)nc2-c2ccc(F)cc2)cc1 | > 42 µM (inactive)
58 | COc1cccc(-n2c(Cc3cc(=O)[nH]c(=O)[nH]3)nnc2SCc2cccnc2)c1 | > 42 µM (inactive)
59 | CN1CCN(C(=O)CCN2C(=O)/C(=C/c3ccccc3Cl)SC2=S)CC1 | > 42 µM (inactive)
60 | COc1ccccc1CSc1ncc(-c2ccc([N+](=O)[O-])cc2)[nH]1 | > 42 µM (inactive)
61 | CCC1(CC)NC(=O)N(CC(=O)N2N=C(c3ccc(Cl)cc3)CC2c2ccco2)C1=O (centres undefined) | > 42 µM (inactive)
62 | CCOc1ccc(-n2cc(C(=O)NCCOC)c3cc(OC)c(OC)cc3c2=O)cc1 | > 42 µM (inactive)
63 | CC1CCCC(C)N1/N=C/c1cc(Br)cc(Br)c1O (centres undefined) | > 42 µM (inactive)
64 | Cc1ccc(C)n1-n1cnc2sc3c(c2c1=O)CCCCC3 | > 42 µM (inactive)
65 | CN1C(=O)NC(=O)[C@]2(Cc3ccccc3N3CCN(c4ccccc4)CC32)C1=O (some centres undefined) | > 42 µM (inactive)
66 | c1ccc(CCCc2nc(-c3cccnc3)no2)cc1 | > 42 µM (inactive)
67 | O=C(Nc1ccc2c(c1)oc1ccccc12)C1CC1 | > 42 µM (inactive)
68 | CC(=O)c1ccc(C(=O)N2CCCC(N3CCN(c4ccc(F)cc4)CC3)C2)s1 (centres undefined) | > 42 µM (inactive)
69 | N#C/C(=C\c1ccc(O)c(O)c1)C(=O)Nc1ccccc1 | > 42 µM (inactive)
70 | CC(C)CN(C(=O)COC(=O)c1ccc2c(c1)OCO2)c1c(N)n(Cc2ccccc2)c(=O)[nH]c1=O | > 42 µM (inactive)
71 | COc1cc(C(=O)Nc2ccc3c(c2)OCCO3)ccc1-n1cnnn1 | > 42 µM (inactive)
72 | CCOC(=O)c1sc2ncnc(N3CCN(c4ccc(OC)cc4)CC3)c2c1C | > 42 µM (inactive)
73 | C[C@H](NC(=O)OC(C)(C)C)C(=O)NCC1CCC(C(=O)N[C@@H](Cc2ccccc2)C(=O)O)CC1 (some centres undefined) | > 42 µM (inactive)
74 | CCc1ccc2c(c1)C(c1ccc([N+](=O)[O-])cc1)=NNC(c1ccc(C)cc1)=N2 | > 42 µM (inactive)
75 | COc1cc(CN2CCN(c3ncccn3)CC2)cc(OC)c1 | > 42 µM (inactive)

Row | Compound | AC50
76 | CCc1ccccc1NC(=O)N[C@@H](C)C(=O)OC | > 42 µM (inactive)
77 | O=c1cnc2cc([N+](=O)[O-])ccc2[nH]1 | > 42 µM (inactive)
78 | COc1ccc(C2=Nn3c(nnc3-c3ccco3)SC2)cc1 | > 42 µM (inactive)
79 | O=C(CCN1CCc2ccccc2C1)Nc1ccc2c(c1)OCO2 | > 42 µM (inactive)
80 | N#C/C(=C\c1cn(-c2ccccc2)nc1-c1cccnc1)c1nnc2n1CCCCC2 | > 42 µM (inactive)
81 | COc1ccc(CC(=O)NCCN2CCOCC2)cc1 | > 42 µM (inactive)
82 | Cc1nn(C)cc1S(=O)(=O)Nc1ncccn1 | > 42 µM (inactive)
83 | Cc1ccc(NS(=O)(=O)c2ccc(NC(=O)C3CCCO3)cc2)cc1 (centres undefined) | > 42 µM (inactive)
84 | COc1ccc(C(=O)N(CCc2ccccc2)Cc2ccccc2)c(OC)n1 | > 42 µM (inactive)
85 | Cc1ccccc1C(=O)NNC(=O)/C=C\C(=O)O | > 42 µM (inactive)
86 | O=c1cnc2ccccc2n1Cc1ccccc1C(F)(F)F | > 42 µM (inactive)
87 | COc1ccccc1-c1nnc(SCC(=O)NC2CCS(=O)(=O)C2)n1N (centres undefined) | > 42 µM (inactive)
88 | Cc1ccc(S(=O)(=O)NCC(C)n2cncn2)cc1 (centres undefined) | > 42 µM (inactive)
89 | COc1ccc(C(=O)COc2ccc3ccc(=O)oc3c2)cc1 | > 42 µM (inactive)
90 | CCN(CC)C(=O)Cn1c(=O)n(CCCC(=O)NCc2ccccc2)c(=O)c2sccc21 | > 42 µM (inactive)
91 | Cc1cc(C)nc(SCC2COc3ccccc3O2)n1 (centres undefined) | > 42 µM (inactive)
92 | CCCN1C(=O)c2[nH]nc(-c3cc(Cl)c(C)cc3O)c2C1c1ccc(O)c(OC)c1 (centres undefined) | > 42 µM (inactive)
93 | Cc1ccc(-c2nc(CS(=O)(=O)CC(=O)NC3CCCCC3C)c(C)o2)cc1 (centres undefined) | > 42 µM (inactive)
94 | Cc1ccc(CC(=O)O/N=C(\N)c2cccc([N+](=O)[O-])c2)cc1 | > 42 µM (inactive)
95 | CCn1nccc1C(=O)Nc1nccs1 | > 42 µM (inactive)
96 | CCOC(=O)CNC(=O)c1c(C)nn(C)c1Cl | > 42 µM (inactive)
97 | CCOc1ccccc1CN1CCNC(=O)C1CC(=O)NCCN1CCOC1=O (centres undefined) | > 42 µM (inactive)
98 | C/C(CC1(O)C(=O)Nc2ccccc21)=N\O (centres undefined) | > 42 µM (inactive)
99 | COc1ccc(N(C(=O)c2ccco2)C(C(=O)NC2CCCCC2)c2ccccc2)cc1 (centres undefined) | > 42 µM (inactive)
